# Measurements reported in patent EP1103270B1, “TREATMENT OF AUTOIMMUNE DISEASES IN MAMMALS” (UNIVERSIDAD COMPLUTENSE DE MADRID, priority 1999, dated 2000).
# pIC50: −log10 of the molar value.
# How the values were obtained:
# IL-6 [1] = assay: Circulating levels of IL-6 in mice after injection of LPS; type: in vivo; conditions: two hours after injection of 25 µgr. of LPS, simultaneous administration of 5nmol
# Description: In an experiment carried out in mice the circulating levels of IL-6 two hours after injection of 25 µgr. of LPS were approximately 1.5 ngr./ml. The simultaneous administration of 5nmol of VIP or ACHPA reduced said levels by 60% and 75%, respectively.
# mRNA of IL-6 = assay: Northern Blot for mRNA of IL-6 in macrophages activated with LPS; type: cell-based, rat; conditions: macrophages activated with LPS and exposed to the peptide; Figure 5
# Protocol: (§1) • Figure 1 represents the production of TNFα by murine macrophages in culture (5x10^5 cells/ml) stimulated with 10ngr/ml of LPS in the presence or absence of 10^-8M of VIP or ACHPA during the course of 24 hours. • Figure 2 represents the production of TNFα by murine macrophages in culture (5x10^5 cells/ml) after 6 hours of culture with 10ngr/ml of LPS and to which 10^-8M of VIP or ACHPA are added at different times. • Figure 3 represents the production of IL-6 by murine macrophages in culture (5x10^5 cells/ml) stimulated with 10ngr/ml of LPS in the presence or absence of 10^-8M of VIP or ACHPA during the course of 24 hours. • Figure 4 represents the production of IL-6 by murine macrophages in culture (5x10^5 cells/ml) after 6 hours of culture with 10ngr/ml of LPS and to which 10^-8M of VIP or ACHPA are added at different times. • Figure 5 presents the Northern Blot analysis for the presence of mRNA of TNFα and IL-6 in macrophages stimulated with LPS in the presence or absence of VIP or ACHPA (18S represents the corresponding rRNA as total quality control of loaded RNA). • Figure 6 represents the survival in mice injected with 400µgr of LPS and, simultaneously, or after 30 minutes, 1 or 4 hours, with 5 nmol of VIP or ACHPA.
# (§2) Macrophages from rat were submitted to the experimental conditions described in examples 1 and 3 and their mRNA was isolated. […]
# IL-6 [2] = assay: Production of IL-6 in peritoneal murine macrophages stimulated with LPS, in vitro; type: cell-based
# Protocol: In experiments carried out " in vitro" VIP and ACHPA inhibit the production of IL-6 in peritoneal murine macrophages stimulated with LPS. Most of the inhibition reaches values near to 90% and occurs with doses of stimulation of 10 µgr./ml of LPS. […] The inhibitory effect is also observed if the neuropeptides are added after stimulation with LPS, although the degree of inhibition is progressively smaller (see Figure 4).
# anti-KLH antibodies = assay: Isotype of serum anti-KLH antibodies (ELISA) in KLH-immunised mice; type: in vivo; conditions: 5 nmol/mouse with second KLH injection, serum two weeks after the last immunisation
# IL-4 producing cells = assay: Number of IL-4 producing cells (ELISPOT) in spleen and peritoneum of KLH-immunised mice; type: in vivo; conditions: 5 nmol/mouse with second KLH injection, spleen and peritoneum cells two weeks later
# TNFα [3] = assay: Circulating levels of TNFα in mice after injection of LPS; type: in vivo; conditions: 2 hours after injection of 25 µgr of LPS, simultaneous administration of 5 nmol
# Protocol: In an experiment carried out with mice the circulating levels of TNFα 2 hours after injection of 25 µgr of LPS were approximately 4 ngr./ml. Simultaneous administration of 5 nmol of VIP or ACHPA reduced said levels by 60%.
# TNFα [4] = assay: Production of TNFα in peritoneal murine macrophages stimulated with LPS, in vitro; type: cell-based
# Protocol: as §1
# In experiments carried out "in vitro" VIP and ACHPA inhibit the production of TNFα in peritoneal murine macrophages stimulated with LPS. […]
# [5] = Survival of mice injected with a lethal dose of LPS (endotoxic shock); type: in vivo; conditions: mice injected with 400µgr of LPS
# Protocol: as §1
# An experiment was carried out in which the long-term survival over a period of 4 days was studied for mice injected with 400µgr of LPS. […]
# mRNA of TNFα = assay: Northern Blot for mRNA of TNFα in macrophages activated with LPS; type: cell-based, rat; conditions: macrophages activated with LPS and exposed to the peptide; Figure 5
# Protocol: as §1, §2
substance,measurement,setting,value
adenylate cyclase hypophysary peptide activator [ACHPA],reduction of circulating levels of IL-6,IL-6 [1],75%
same,transcripts for IL-6 (Northern Blot),mRNA of IL-6,absence of transcripts
same,pIC50,"IL-6 [2]; peritoneal murine macrophages stimulated with LPS, read-out: IC50 (inhibition of the production of IL-6)",11.07
same,inhibition of the production of IL-6 (most of the inhibition),"IL-6 [2]; peritoneal murine macrophages, stimulation with 10 µgr./ml of LPS",~90%
same,isotype of anti-KLH antibodies detectable in serum,anti-KLH antibodies,only of the IgGl isotype
same,increase in the number of IL-4 producing cells compared to untreated mice,IL-4 producing cells,~20 times
same,reduction of circulating levels of TNFα,TNFα [3],60%
same,pIC50,"TNFα [4]; peritoneal murine macrophages stimulated with LPS, read-out: IC50 (inhibition of the production of TNFα)",10.10
same,greatest degree of inhibition of the production of TNFα,"TNFα [4]; peritoneal murine macrophages, stimulation with 1-10 ngr./ml of LPS",~60%
same,survival rates,[5]; administration up to 1 hour after injection with LPS,~50%
same,survival at the end of the experiment,"[5]; simultaneous administration of 5 nmol, period of 4 days",60%
same,transcripts for TNFα (Northern Blot),mRNA of TNFα,absence of transcripts
